Data set [1] concerns the target human P-glycoprotein (P-gp, MDR1) (Homo sapiens (Human), UniProt P08183). The data set is described as follows: MDCK-MDR1 cell monolayer drug transport assay (P-gp efflux ratio). It counts as in vitro ADME. Particulars: pH 7.4, MDCK-MDR1 cells; for efflux ratio at 2 h, 1 µM: 1 uM concentration of compound, read-out: Pgp Efflux Ratio, 1 uM. As for the experimental part:
The potential for compounds prepared according to the examples to be substrates of P-gp was evaluated using in vitro on Multidrug Resistance Mutation 1-Mardin-Darby Canine Kidney (MDCK-MDR1)) (Mardin-Darby Canine Kidney) cell monolayers overexpressing P-gp grown on permeable supports.
Preparation for cell seeding: MDCK-MDR1 cell culture medium consisting of Dulbecco's Modified Eagle's Medium (DMEM) with high glucose and L-glutamine supplemented with: 10% FBS, 0.1 mg/mL of streptomycin, 0.6 μg/mL of Kanamycin sulfate and 100 units of penicillin was prepared. 50 μL of culture medium was added to each well of the Transwell insert. The Transwell insert was removed from the reservoir and 25 mL of culture medium was added. After incubation at 37° C., 5% CO2 for 1 hour, the plates were ready for cell seeding. The cells were cultivated in T-75 flasks in a cell culture incubator set at 37° C., 5% CO2, 95% relative humidity until they reached 80-90% confluence before detaching and splitting. The cultivated cells were rinsed in T-75 flasks with 5 mL PBS and aspirated off, and then 1.5 mL trypsin/EDTA was added and incubated at 37° C. for approximately 5 to 10 minutes or until the cells detach and float. The trypsin/EDTA was inactived by adding excess serum containing medium. The cell suspension was transferred to a conical tube and the cells pelleted by centrifugation at 120×g for 10 minutes. The cells were resuspended in seeding medium at a density of 1.56×10^6 cells/mL. This cell concentration was used to seed 5.45×10^5 cells/cm^2.
Seeding and feeding of MDCK-MDR1 cells into transwell plates: 50 μL of the above cell suspension was added to each well of a previously prepared Transwell plate and the plate was incubated for 4-8 days, replacing the medium every other day beginning no sooner than 48 hours after initial plating. The medium must be replaced on the day before conducting the experiment, and the procedure for medium changes was carried out as follows. The plate was removed from the incubator and placed in a hood. The medium was aspirated from a reservoir and each Transwell was inserted. 100 μL of culture medium was added to each well of the Transwell inserts and 25 mL of culture medium to reservoir tray. The plate was returned to the incubator.
Assessment of cell monolayer integrity: When the 4-day cultured MDCK-MDR1 cells reached confluence and were differentiated, the medium was removed from the reservoir and Transwell inserts. 100 μL of prewarmed culture medium was added to each transwell insert and 25 mL was added to the reservoir tray. The electrical resistance across the monolayer was measured using a Millicell Epithelial Volt-Ohm measuring system. The electrical resistance for each well was measured and then the plate was returned to the incubator. TEER values were calculated using this formula: TEER measurement (ohms)×Area of membrane (cm2)=TEER value (ohm cm2). Any monolayer with a TEER value <42 ohms·cm2, indicating poor monolayer formation, was discarded.
Performing the drug transport assay: The MDCK-MDR1 plate was removed from the incubator and the monolayer was washed, exchanging the volume two times using pre-warmed HBSS (Hank's balanced salt solution) (10 mM HEPES, pH 7.4). The plate was then incubated at 37° C. for 30 minutes. A 1 μM compound working solution was prepared as follows: Added […] of stock solution (10 mM in DMSO) of test compound and control compounds (Metoprolol, Prazosin and Imatinib) in one 96 well plate, then added 98 μL of DMSO into the same well to obtain 0.2 mM stock solutions (note a stock solution was further diluted 1:10 for eventually making a 0.1 uM compound working solution). Transfered 3 μL of 0.2 mM solution into 597 μL of transport buffer in one 96 well plate to prepare the 1 μM compound working solution. The plate was shaken at 1000 rpm for 10 min.

The target of the next data set is wild type c-kit (Homo sapiens (Human), UniProt P10721). Put plainly: PathScan phospho c-kit (Tyr719) sandwich ELISA in SCF-stimulated M-07e cells (pKIT assay). It counts as cell-based. Particulars: ELISA assay (values not marked *). The procedure, abridged: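 Tyr719-phosphorylated c-kit was measured by colorimetric (TMB) sandwich ELISA in lysates of M-07e cells. Cells were starved 4 h without serum or GM-CSF, dosed 60 min at 37 °C with compound (8 points, duplicate, 0.25% DMSO), and stimulated 10 min with human SCF (500 ng/mL as added). IC50 values came from 4-parameter logistic regression.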
On the technique in general: An ELISA detects its analyte on a solid surface through an enzyme-linked reagent.

Each structure is given as a SMILES string.

Chain of wild type c-kit (P10721 26-976): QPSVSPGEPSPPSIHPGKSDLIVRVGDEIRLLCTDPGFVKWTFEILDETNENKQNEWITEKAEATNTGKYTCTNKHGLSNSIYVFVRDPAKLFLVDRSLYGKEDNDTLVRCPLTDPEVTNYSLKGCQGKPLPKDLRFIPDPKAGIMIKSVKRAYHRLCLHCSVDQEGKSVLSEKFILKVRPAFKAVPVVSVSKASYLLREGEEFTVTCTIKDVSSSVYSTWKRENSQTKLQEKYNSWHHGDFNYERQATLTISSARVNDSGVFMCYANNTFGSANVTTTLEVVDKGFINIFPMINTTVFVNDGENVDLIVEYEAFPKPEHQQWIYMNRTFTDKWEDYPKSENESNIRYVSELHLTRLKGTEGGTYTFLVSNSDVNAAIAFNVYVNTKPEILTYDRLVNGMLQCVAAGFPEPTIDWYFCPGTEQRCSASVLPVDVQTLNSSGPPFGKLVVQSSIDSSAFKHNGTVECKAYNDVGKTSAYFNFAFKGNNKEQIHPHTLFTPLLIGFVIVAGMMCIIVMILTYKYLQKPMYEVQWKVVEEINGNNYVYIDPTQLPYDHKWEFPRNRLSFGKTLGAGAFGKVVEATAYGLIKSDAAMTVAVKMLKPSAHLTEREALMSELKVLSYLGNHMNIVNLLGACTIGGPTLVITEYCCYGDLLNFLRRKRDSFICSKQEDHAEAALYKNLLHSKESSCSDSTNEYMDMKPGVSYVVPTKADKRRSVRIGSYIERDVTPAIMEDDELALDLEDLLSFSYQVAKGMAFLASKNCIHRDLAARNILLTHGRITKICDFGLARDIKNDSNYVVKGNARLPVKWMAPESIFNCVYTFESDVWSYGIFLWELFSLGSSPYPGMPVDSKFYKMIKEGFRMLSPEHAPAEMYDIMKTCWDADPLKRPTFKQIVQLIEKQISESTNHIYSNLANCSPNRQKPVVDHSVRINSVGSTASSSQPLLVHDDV
Chain of human P-glycoprotein (P-gp, MDR1) (P08183 whole entry): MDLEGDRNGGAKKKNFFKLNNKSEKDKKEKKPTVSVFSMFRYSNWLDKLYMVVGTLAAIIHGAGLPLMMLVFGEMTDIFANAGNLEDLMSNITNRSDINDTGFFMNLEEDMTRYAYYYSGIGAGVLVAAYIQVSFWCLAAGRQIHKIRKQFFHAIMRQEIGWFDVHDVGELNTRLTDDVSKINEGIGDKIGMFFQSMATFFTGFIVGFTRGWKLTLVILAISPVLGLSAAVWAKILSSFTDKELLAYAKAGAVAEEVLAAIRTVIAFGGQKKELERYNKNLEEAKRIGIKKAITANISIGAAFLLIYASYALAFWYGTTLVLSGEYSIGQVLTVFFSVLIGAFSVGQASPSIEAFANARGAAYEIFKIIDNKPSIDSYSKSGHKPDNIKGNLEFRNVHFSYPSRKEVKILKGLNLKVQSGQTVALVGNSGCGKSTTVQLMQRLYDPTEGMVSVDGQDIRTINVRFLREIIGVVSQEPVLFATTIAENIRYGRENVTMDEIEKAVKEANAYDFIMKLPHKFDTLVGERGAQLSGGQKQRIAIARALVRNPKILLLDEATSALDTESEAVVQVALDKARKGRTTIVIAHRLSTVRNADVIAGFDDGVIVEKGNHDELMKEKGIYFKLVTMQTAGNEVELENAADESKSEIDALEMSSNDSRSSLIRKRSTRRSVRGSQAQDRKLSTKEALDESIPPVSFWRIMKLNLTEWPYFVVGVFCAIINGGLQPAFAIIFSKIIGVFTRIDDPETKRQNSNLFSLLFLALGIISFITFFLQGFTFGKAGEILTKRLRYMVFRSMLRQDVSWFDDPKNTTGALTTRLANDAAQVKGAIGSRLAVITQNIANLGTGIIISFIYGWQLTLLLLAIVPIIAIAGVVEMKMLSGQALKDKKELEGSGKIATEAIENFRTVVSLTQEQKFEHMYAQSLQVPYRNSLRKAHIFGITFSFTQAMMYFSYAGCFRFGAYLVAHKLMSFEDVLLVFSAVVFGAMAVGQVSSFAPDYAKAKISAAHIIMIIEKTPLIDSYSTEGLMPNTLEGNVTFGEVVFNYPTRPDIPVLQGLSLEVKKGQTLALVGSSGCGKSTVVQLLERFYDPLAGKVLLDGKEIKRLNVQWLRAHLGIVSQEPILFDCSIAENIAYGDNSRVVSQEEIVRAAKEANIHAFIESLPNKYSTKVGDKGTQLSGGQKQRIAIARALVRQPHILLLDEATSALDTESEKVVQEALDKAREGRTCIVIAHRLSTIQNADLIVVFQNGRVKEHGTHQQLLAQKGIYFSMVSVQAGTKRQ

As usually defined, the IC50 is the concentration needed to halve the response being measured. Read a low IC50 as greater potency. For the compound `COC(=O)N1CC(n2nnc(-c3ccc(C)c(NC(=O)c4cnn5ccc(NCC(C)(C)OC)cc45)c3)n2)C1` [Example 96, methyl 3-(5-(3-(5-((2-methoxy-2-methylpropyl)amino)pyrazolo[1,5-a]pyridine-3-carboxamido)-4-methylphenyl)-2H-tetrazol-2-yl)azetidine-1-carboxylate], in data set [1], the efflux ratio at 2 h, 1 µM was 9.5. The compound further came in with an IC50 at wild type c-kit of 37.1 nM. For `COC(=O)N1CC(c2cnn(-c3ccc(C)c(NC(=O)c4cnn5ccc(NCC(F)F)cc45)c3)n2)C1` [Example 139, methyl 3-(2-(3-(5-((2,2-difluoroethyl)amino)pyrazolo[1,5-a]pyridine-3-carboxamido)-4-methylphenyl)-2H-1,2,3-triazol-4-yl)azetidine-1-carboxylate], in that order: 18.9 and 26.3 nM. In the case of `Cc1ccc(-c2nnn([C@H]3C[C@@H](C(F)(F)F)C3)n2)cc1NC(=O)c1cnn2ccc(N3CCC(C)(O)CC3)cc12` [Example 122, 5-(4-hydroxy-4-methylpiperidin-1-yl)-N-(2-methyl-5-(2-((1s,3s)-3-(trifluoromethyl)cyclobutyl)-2H-tetrazol-5-yl)phenyl)pyrazolo[1,5-a]pyridine-3-carboxamide or 5-(4-hydroxy-4-methylpiperidin-1-yl)-N-(2-methyl-5-(2-((1r,3r)-3-(trifluoromethyl)cyclobutyl)-2H-tetrazol-5-yl)phenyl)pyrazolo[1,5-a]pyridine-3-carboxamide], the efflux ratio at 2 h, 1 µM in data set [1] was 12.8. At wild type c-kit, this compound showed an IC50 of 0.6 nM. For `Cc1ccc(-c2nnn(C3CC3)n2)cc1NC(=O)c1cnn2ccc(-c3c(C)nn(CCO)c3C)cc12` [Example 208, N-(5-(2-cyclopropyl-2H-tetrazol-5-yl)-2-methylphenyl)-5-(1-(2-hydroxyethyl)-3,5-dimethyl-1H-pyrazol-4-yl)pyrazolo[1,5-a]pyridine-3-carboxamide], in that order: 4.1 and 0.4 nM.

For the compound `Cc1cc(F)c(-c2nnn(C3CC3)n2)cc1NC(=O)c1cnn2ccc(-c3cnn(CC(C)(C)O)c3C)cc12` [Example 240, N-(5-(2-cyclopropyl-2H-tetrazol-5-yl)-4-fluoro-2-methylphenyl)-5-(1-(2-hydroxy-2-methylpropyl)-5-methyl-1H-pyrazol-4-yl)pyrazolo[1,5-a]pyridine-3-carboxamide], in data set [1], the efflux ratio at 2 h, 1 µM came to 7.4. This compound returned an IC50 against wild type c-kit of 0.6 nM.

Consider `COC(=O)N1CC(n2nnc(-c3ccc(C)c(NC(=O)c4cnn5ccc(N6CC7(COC7)C6)cc45)c3)n2)C1` [Example 98, methyl 3-(5-(3-(5-(2-oxa-6-azaspiro[3.3]heptan-6-yl)pyrazolo[1,5-a]pyridine-3-carboxamido)-4-methylphenyl)-2H-tetrazol-2-yl)azetidine-1-carboxylate], for which the efflux ratio at 2 h, 1 µM in data set [1] was found to be 15.5. At wild type c-kit, this compound returned an IC50 of 47.8 nM.

With `Cc1nnn(-c2ccc(C)c(NC(=O)c3cnn4ccc(-c5cnn(CC(C)(C)O)c5)cc34)c2)n1` [Example 209, 5-(1-(2-hydroxy-2-methylpropyl)-1H-pyrazol-4-yl)-N-(2-methyl-5-(5-methyl-2H-tetrazol-2-yl)phenyl)pyrazolo[1,5-a]pyridine-3-carboxamide], the efflux ratio at 2 h, 1 µM in data set [1] amounted to 4.3. In addition, the IC50 on wild type c-kit turned out to be 6.9 nM. Consider `COC(=O)N1CC(n2nnc(-c3ccc(C)c(NC(=O)c4cnn5ccc(NCC6CCO6)cc45)c3)n2)C1` (centres unmarked) [Example 95, methyl 3-(5-(4-methyl-3-(5-((oxetan-2-ylmethyl)amino)pyrazolo[1,5-a]pyridine-3-carboxamido)phenyl)-2H-tetrazol-2-yl)azetidine-1-carboxylate], for which, in data set [1], the efflux ratio at 2 h, 1 µM was 21.5. Also, the IC50 against wild type c-kit turned out to be 30.5 nM.

As to `CC(C)(O)Cn1cc(-c2ccn3ncc(C(=O)Nc4cc(-c5nnn(C6CC6)n5)ccc4Cl)c3c2)cn1` [Example 234, N-(2-chloro-5-(2-cyclopropyl-2H-tetrazol-5-yl)phenyl)-5-(1-(2-hydroxy-2-methylpropyl)-1H-pyrazol-4-yl)pyrazolo[1,5-a]pyridine-3-carboxamide], in data set [1] (0.1 uM concentration of compound (denoted by **), read-out: Pgp Efflux Ratio), the efflux ratio at 2 h, 0.1 µM is 3.8. Further, inhibition at wild type c-kit was half-maximal at 0.5 nM (IC50). For `Cc1ccc(-c2nnn(CCOCC(F)(F)F)n2)cc1NC(=O)c1cnn2ccc(-c3cn[nH]c3)cc12` [Example 197, N-(2-methyl-5-(2-(2-(2,2,2-trifluoroethoxy)ethyl)-2H-tetrazol-5-yl)phenyl)-5-(1H-pyrazol-4-yl)pyrazolo[1,5-a]pyridine-3-carboxamide], the efflux ratio at 2 h, 1 µM in data set [1] stood at 41. Same read-out and setting: in the case of `Cc1cnn(-c2ccc(C)c(NC(=O)c3cnn4ccc(-c5cnn(C[C@H]6CNCCO6)c5)cc34)c2)n1` [Example 205, (R)—N-(2-methyl-5-(4-methyl-2H-1,2,3-triazol-2-yl)phenyl)-5-(1-(morpholin-2-ylmethyl)-1H-pyrazol-4-yl)pyrazolo[1,5-a]pyridine-3-carboxamide] it was 33.1. For the compound `Cc1ccc(-c2nnn(CCCC(F)(F)F)n2)cc1NC(=O)c1cnn2ccccc12` [Example 1, N-(2-methyl-5-(2-(4,4,4-trifluorobutyl)-2H-tetrazol-5-yl)phenyl)pyrazolo[1,5-a]pyridine-3-carboxamide], at wild type c-kit, the IC50 was 3.8 nM.

For `Cc1ccc(-c2nnn(C3CN(S(=O)(=O)C(C)C)C3)n2)cc1NC(=O)c1cnn2ccccc12` [Example 177, N-(5-(2-(1-(isopropylsulfonyl)azetidin-3-yl)-2H-tetrazol-5-yl)-2-methylphenyl)pyrazolo[1,5-a]pyridine-3-carboxamide], the IC50 on wild type c-kit stood at 8.8 nM. The compound `Cc1cc(F)c(-c2nnn(C3CC3)n2)cc1NC(=O)c1cnn2ccc(-c3c(C)nn(C[C@H](C)O)c3C)cc12` [Example 254, (S)-N-(5-(2-cyclopropyl-2H-tetrazol-5-yl)-4-fluoro-2-methylphenyl)-5-(1-(2-hydroxypropyl)-3,5-dimethyl-1H-pyrazol-4-yl)pyrazolo[1,5-a]pyridine-3-carboxamide] showed a 50% inhibitory concentration (IC50) on wild type c-kit of 0.4 nM. As for `CCn1nnc(-c2cc(NC(=O)c3cnn4ccc(-c5cn(C[C@H](O)COCCOC)nc5C)cc34)c(Cl)cc2F)n1` [Example 283, (S)—N-(2-chloro-5-(2-ethyl-2H-tetrazol-5-yl)-4-fluorophenyl)-5-(1-(2-hydroxy-3-(2-methoxyethoxy)propyl)-3-methyl-1H-pyrazol-4-yl)pyrazolo[1,5-a]pyridine-3-carboxamide], inhibition against wild type c-kit was half-maximal at 0.7 nM (IC50). Same read-out and setting: in the case of `Cc1nnn(-c2ccc(C)c(NC(=O)c3cnn4ccc(-c5c(C)nn(CC(C)(C)O)c5C)cc34)c2)n1` [Example 244, 5-(1-(2-hydroxy-2-methylpropyl)-3,5-dimethyl-1H-pyrazol-4-yl)-N-(2-methyl-5-(5-methyl-2H-tetrazol-2-yl)phenyl)pyrazolo[1,5-a]pyridine-3-carboxamide] it was 0.4 nM; in that of `[2H]C([2H])([2H])c1ccc(-c2nnn(C3CN(C(=O)OC)C3)n2)cc1NC(=O)c1cnn2ccc(NCCOC)cc12` [Example 118, methyl 3-(5-(3-(5-((2-methoxyethyl)amino)pyrazolo[1,5-a]pyridine-3-carboxamido)-4-(methyl-d3)phenyl)-2H-tetrazol-2-yl)azetidine-1-carboxylate], 22.7 nM.

The values above are taken from patent publication US20240262826A1, “WILD TYPE KIT INHIBITORS” (Blueprint Medicines Corporation, priority 2022, published 2024).
